Data on seven compounds can be found in patent publication US20230310478A1, “METHODS AND COMPOSITIONS FOR THE TREATMENT OF PULMONARY HYPERTENSION AND CANCER” (Ann and Robert H. Lurie Children's Hospital of Chicago, priority 2020, published 2023).

Data set [1] deals with T1, HIF-2α (Homo sapiens, UniProt Q99814).
T1 construct: endogenous in cells; host or cells: 786-O cells stably expressing HRE-luciferase
As to the kind of experiment: HRE-luciferase activity in stable HRE/luciferase-expressing 786-O cells. The format is cell-based. Conditions: for HRE luciferase activity (HIF activity), result in words: stable HRE-luciferase 786-O cells. As to the method: HRE, hypoxia-responsive element.
FIG. 5. […] PBS was used in CTL and compound C76 was used as a positive control. **, P<0.01, ****, P<0.0001. Student t test.
FIG. 7. Ethacridine is a potent HIF-α inhibitor. To validate the inhibitory effect of Ethacridine, stable 786-O cells expressing HRE-Luciferase was treated with Ethacridine at the indicated concentration for 24 h. Luciferase activity was then measured and normalized to control vehicle (DMSO) group. Ethacridine at 5 uM could inhibited approximately 80% HRE activity, i.e., HIF activity. Data are expressed as mean±SD. […]

Data set [2] relates to MCT-challenged rats. As to the kind of experiment: monocrotaline (MCT) rat model of pulmonary hypertension. The class given is in vivo. The procedure:
(A) Representative micrographs of Russel-Movat pentachrome staining of MCT-rat lungs. […] (B) Quantification of PA wall thickness in MCT rat lungs. […] Lung sections were immunostained with anti-α-smooth muscle actin (α-SMA) antibody (red); nuclei were counterstained with DAPI (blue). […] Scale bars: 50 μm.
FIG. 6. […] At 14 days post-MCT challenge, the rats were treated with HEAQ (20 mg/kg, oral, daily) or PBS for another 14 days.
RVSP was measured (A) and RV hypertrophy was calculated (B) at 28 days post-treatment. […] One-way ANOVA.
At 14 days post-MCT challenge, the rats were treated with Propantheline (1.0 mg/kg, i.p., twice a day) and Ethacridine (7.5 mg/kg, i.p., twice a day) (P+E) at the same time for 14 days. A separate group of rats was treated with either Propantheline (2.5 mg/kg, i.p., twice a day). RVSP was measured (A) and RV hypertrophy was calculated (B) at 28 days post-treatment. […] One-way ANOVA.

The subject of data set [3] is PDGF-B. As to the kind of experiment: quantitative RT-PCR of PH-causing genes in DMOG-treated HLMVECs: PDGF-B. The format is cell-based, human. Conditions: 24 h, mean±SD.
Method: (§1) Regarding Table 2, human lung microvascular endothelial cells (ECs) were treated with 2-Dimethyloxalylglycine (DMOG, PHD inhibitor) and either vehicle (DMSO) or various HIF inhibitors for 24 h. RNA was isolated for quantitative RT-PCR analysis.
Data set [4] relates to Endothelin-1. As to the kind of experiment: quantitative RT-PCR of PH-causing genes in DMOG-treated HLMVECs: Endothelin-1. The class given is cell-based, human. Conditions: 24 h, mean±SD.
Method: as §1
Data set [5] concerns SDF1. As to the kind of experiment: quantitative RT-PCR of PH-causing genes in DMOG-treated HLMVECs: SDF1. Conditions: 24 h, mean±SD.
Method: as §1
For data set [6], the system named is 786-O cells. As to the kind of experiment: control SV40-luciferase activity in 786-O cells (toxicity). Conditions: for SV40-Luc (of control): 2.5 uM; for control SV40 luciferase activity (cell toxicity), result in words: quinidine at the doses tested. The format is cell-based, human.
Data set [7] relates to HIF-2α. As to the kind of experiment: Western blotting of HIF-2α protein level. The class given is cell-based. (Immunoblotting shows a protein as a band on a membrane.)
In data set [8] the target is human ether-à-go-go-related gene (hERG) channel (Homo sapiens, UniProt Q12809). Conditions: from reference 21; read-out: hERG channel inhibition IC50; cited from earlier work. (hERG is a cardiac potassium channel; its block is linked to QT prolongation.)
Chain of human ether-à-go-go-related gene (hERG) channel (Q12809 whole entry): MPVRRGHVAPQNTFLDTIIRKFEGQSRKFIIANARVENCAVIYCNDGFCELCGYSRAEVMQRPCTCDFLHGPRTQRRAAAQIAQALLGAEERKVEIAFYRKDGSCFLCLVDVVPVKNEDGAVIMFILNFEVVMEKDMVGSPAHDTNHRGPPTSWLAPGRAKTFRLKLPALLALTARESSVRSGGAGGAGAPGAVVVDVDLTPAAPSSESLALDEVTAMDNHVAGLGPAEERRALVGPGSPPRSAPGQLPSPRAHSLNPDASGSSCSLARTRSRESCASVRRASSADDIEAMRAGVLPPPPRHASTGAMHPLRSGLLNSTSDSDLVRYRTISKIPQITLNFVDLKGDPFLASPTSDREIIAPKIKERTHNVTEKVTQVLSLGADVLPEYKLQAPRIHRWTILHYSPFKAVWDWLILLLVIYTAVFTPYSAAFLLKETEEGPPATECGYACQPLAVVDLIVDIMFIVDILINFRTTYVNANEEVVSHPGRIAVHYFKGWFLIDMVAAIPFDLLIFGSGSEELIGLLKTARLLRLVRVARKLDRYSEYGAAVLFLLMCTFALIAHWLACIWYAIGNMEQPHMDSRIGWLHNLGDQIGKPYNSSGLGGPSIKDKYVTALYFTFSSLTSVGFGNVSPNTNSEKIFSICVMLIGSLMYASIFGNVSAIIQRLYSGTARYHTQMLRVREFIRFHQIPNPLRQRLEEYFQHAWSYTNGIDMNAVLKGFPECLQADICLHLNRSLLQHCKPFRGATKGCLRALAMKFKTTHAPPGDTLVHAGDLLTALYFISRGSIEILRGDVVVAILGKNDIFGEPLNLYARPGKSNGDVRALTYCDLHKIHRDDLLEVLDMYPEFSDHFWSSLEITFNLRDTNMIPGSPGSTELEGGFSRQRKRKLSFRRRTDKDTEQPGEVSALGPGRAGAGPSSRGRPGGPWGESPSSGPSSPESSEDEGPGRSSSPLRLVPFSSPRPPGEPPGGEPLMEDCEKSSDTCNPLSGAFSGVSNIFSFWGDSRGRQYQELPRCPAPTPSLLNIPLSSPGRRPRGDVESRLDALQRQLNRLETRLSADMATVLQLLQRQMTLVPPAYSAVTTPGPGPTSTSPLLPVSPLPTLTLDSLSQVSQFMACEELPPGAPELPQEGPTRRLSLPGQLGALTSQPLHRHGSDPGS
Where [9] appears, read: MCT rat lungs, quinidine s.c. osmotic pump 10-12 mg/kg/day, 14 days.
[10] abbreviates: MCT rats, quinidine s.c. osmotic pump 10-12 mg/kg/day, 14 days.
[11] abbreviates: MCT rats, quinidine s.c. osmotic pump 10-12 mg/kg/day, 14 days from 2 weeks post-MCT.

Entries after “also recorded” stand apart in the source; their conditions may differ. Where a name gives a salt, the structure may show the parent alone.

T1 sequence (Q99814 whole entry): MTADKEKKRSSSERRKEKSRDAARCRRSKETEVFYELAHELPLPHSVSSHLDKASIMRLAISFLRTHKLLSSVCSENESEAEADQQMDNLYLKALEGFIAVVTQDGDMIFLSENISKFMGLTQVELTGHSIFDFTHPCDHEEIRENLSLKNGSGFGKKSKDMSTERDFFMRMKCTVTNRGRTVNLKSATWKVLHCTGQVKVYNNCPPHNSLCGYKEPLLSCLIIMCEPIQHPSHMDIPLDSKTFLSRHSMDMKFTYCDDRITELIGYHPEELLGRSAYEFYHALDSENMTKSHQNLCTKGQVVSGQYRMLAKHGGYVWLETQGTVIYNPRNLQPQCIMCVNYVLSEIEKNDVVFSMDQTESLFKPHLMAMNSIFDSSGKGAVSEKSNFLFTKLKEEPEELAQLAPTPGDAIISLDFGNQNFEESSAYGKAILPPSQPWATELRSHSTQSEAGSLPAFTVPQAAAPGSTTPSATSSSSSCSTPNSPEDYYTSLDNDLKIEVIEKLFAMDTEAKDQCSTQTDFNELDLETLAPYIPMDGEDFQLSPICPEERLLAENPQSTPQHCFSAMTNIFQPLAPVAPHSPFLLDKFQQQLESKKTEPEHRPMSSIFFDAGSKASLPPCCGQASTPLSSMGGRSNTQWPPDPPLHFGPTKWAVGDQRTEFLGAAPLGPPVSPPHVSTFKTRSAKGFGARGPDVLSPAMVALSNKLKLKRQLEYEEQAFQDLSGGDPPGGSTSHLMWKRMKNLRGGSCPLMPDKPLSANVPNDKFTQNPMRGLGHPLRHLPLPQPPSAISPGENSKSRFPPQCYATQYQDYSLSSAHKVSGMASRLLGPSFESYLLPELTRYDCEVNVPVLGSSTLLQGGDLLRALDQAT

Regarding `CCOc1ccc2nc3cc(N)ccc3c(N)c2c1` [Ethacridine, 7-ethoxyacridine-3,9-diamine], in data set [1] (786-0, 786-O cells, 2.5 uM), the inhibition (in general, the change of the read-out against control, counted positive when it falls) at 2.5 µM amounted to 70%. In addition, the inhibition at 5 µM in data set [1] (786-0, 786-O cells, 5 uM, 24 h, read-out: inhibition of HRE activity, i.e., HIF activity) is about 80%. Further, in data set [1] (24 h), the “HRE luciferase activity (HIF activity), result in words” value (“HRE luciferase activity (HIF activity)” below) was “potent HIF α inhibitors”. In data set [2] (MCT rats, ethacridine alone 7.5 mg/kg i.p. twice a day, 14 days), the “PH (RVSP)” value is “didn't inhibit PH”. Further, the “PDGF-B expression (control = 1.00)” value in data set [3] (20 & 30 uM, DMOG alone 2.05 ± 0.33) is reported as 0.52 ± 0.31; in data set [3] (20 & 30 uM, DMOG alone 2.05 ± 0.33, listed as ethacridine), “markedly inhibited”. Besides, the “Endothelin-1 expression (control = 1.00)” value is listed as 0.12 ± 0.07 in data set [4] (20 & 30 uM, DMOG alone 2.36 ± 0.23) and “markedly inhibited” in data set [4] (20 & 30 uM, DMOG alone 2.36 ± 0.23, listed as ethacridine). The “SDF1 expression (control = 1.00)” value in data set [5] (20 & 30 uM, DMOG alone 1.80 ± 0.06) is 12.9 ± 8.1; in data set [5] (20 & 30 uM, DMOG alone 1.80 ± 0.06, listed as ethacridine) it was “induced SDF-1 expression”.

Regarding `COc1cc([C@@H]2c3cc4c(cc3[C@@H](O[C@@H]3O[C@@H]5CO[C@@H](C)O[C@H]5[C@H](O)[C@H]3O)[C@H]3COC(=O)[C@H]23)OCO4)cc(OC)c1O` [Etoposide, (5S,5aR,8aR,9R)-5-[[(2R,4aR,6R,7R,8R,8aS)-7,8-dihydroxy-2-methyl-4,4a,6,7,8,8a-hexahydropyrano[3,2-d][1,3]dioxin-6-yl]oxy]-9-(4-hydroxy-3,5-dimethoxyphenyl)-5a,6,8a,9-tetrahydro-5H-[2]benzofuro[6,5-f][1,3]benzodioxol-8-one], the “HRE-Luc (of control)” value in data set [1] (786-O cells, 1.25 uM) was 0.34. Moreover, the “HRE luciferase activity (HIF activity)” value in data set [1] (24 h) is recorded as “potent HIF α inhibitors”. Also, the “PDGF-B expression (control = 1.00)” value in data set [3] (20 & 40 uM, DMOG alone 2.05 ± 0.33) is 0.77 ± 0.37; in data set [3] (20 & 40 uM, DMOG alone 2.05 ± 0.33, listed as etoposide) it was “markedly inhibited”. Also, the “Endothelin-1 expression (control = 1.00)” value in data set [4] (20 & 40 uM, DMOG alone 2.36 ± 0.23) is given as 0.47 ± 0.50; in data set [4] (20 & 40 uM, DMOG alone 2.36 ± 0.23, listed as etoposide), “markedly inhibited”. Moreover, the “SDF1 expression (control = 1.00)” value in data set [5] (20 & 40 uM, DMOG alone 1.80 ± 0.06) is listed as 1.25 ± 0.80.

In turn, `CCc1c2c(nc3ccc(OC(=O)N4CCC(N5CCCCC5)CC4)cc13)-c1cc3c(c(=O)n1C2)COC(=O)[C@]3(O)CC` [Irinotecan, [(19S)-10,19-diethyl-19-hydroxy-14,18-dioxo-17-oxa-3,13-diazapentacyclo[11.8.0.0^2,11.0^4,9.0^15,20]henicosa-1(21),2,4(9),5,7,10,15(20)-heptaen-7-yl] 4-piperidin-1-ylpiperidine-1-carboxylate; hydrochloride] gave an inhibition at 2.5 µM in data set [1] (786-0, 786-O cells, 2.5 uM) of 65 to 77%. Moreover, the “HRE-Luc (of control)” value in data set [1] (786-O cells, 2.5 uM) was determined as 0.23. For the same compound, the “HRE luciferase activity (HIF activity)” value in data set [1] (24 h) is “potent HIF α inhibitors”. Further, the “SV40-Luc (of control)” value is listed as 0.99 in data set [6] (hydrochloride) and “without clear toxicity” in data set [6] (listed as irinotecan, hydrochloride).

On to `CC[N+](C)(CC)CCOC(=O)C1c2ccccc2Oc2ccccc21` [Methantheline], for which, in data set [1] (786-0, 786-O cells, 2.5 uM), the inhibition at 2.5 µM was in the range of 65 to 77%. In data set [1] (786-O cells, 2.5 uM), the “HRE-Luc (of control)” value amounted to 0.31. In addition, the “HRE luciferase activity (HIF activity)” value in data set [1] (24 h) is recorded as “potent HIF α inhibitors”. The figures for the “SV40-Luc (of control)” value in data set [6] and in data set [6] (listed as methantheline) were 0.86 and “without clear toxicity”, respectively.

Regarding `CC(C)[N+](C)(CCOC(=O)C1c2ccccc2Oc2ccccc21)C(C)C.[Br-]` [Propantheline], the “PDGF-B expression (control = 1.00)” value in data set [3] (40 uM, DMOG alone 2.05 ± 0.33) was 1.55 ± 0.44. In addition, in data set [4] (40 uM, DMOG alone 2.36 ± 0.23), the “Endothelin-1 expression (control = 1.00)” value worked out at 1.70 ± 0.45. Moreover, the “SDF1 expression (control = 1.00)” value in data set [5] (40 uM, DMOG alone 1.80 ± 0.06) was 0.53 ± 0.37; in data set [5] (40 uM, DMOG alone 1.80 ± 0.06, listed as propantheline), “mainly inhibited SDF-1 expression”.

For `C=C[C@H]1C[N@]2CC[C@H]1C[C@@H]2[C@@H](O)c1ccnc2ccc(OC)cc12` [Quinidine, (2-Ethenyl-4-azabicyclo[2.2.2]oct-5-yl)-(6-methoxyquinolin-4-yl)-methanol], the inhibition at 20 µM in data set [1] (786-0, 786-O cells, 20 uM) is about 70%. For the same compound, in data set [1] (24 h), the “HRE luciferase activity (HIF activity)” value is “repressed HRE luciferase (Luc) activity in a dose-dependent manner”. The “HRE luciferase activity (HIF activity)” value in data set [1] (24 h, listed as quinidine) is reported as “inhibition of HRE/luciferase activity in a dose-dependent manner”. Further, in data set [6], the “control SV40 luciferase activity (cell toxicity), result in words” value is “didn't repress control SV40 luciferase activity”. Further, in data set [6] (listed as quinidine), the “control SV40 luciferase activity (cell toxicity), result in words” value was “without obvious toxicity”. The HIF-2α protein level result in data set [7] was “didn't inhibit expression”. In addition, the “expression of HIF-2α downstream target genes in lungs” value in data set [2] (MCT rat lungs, quantitative RT-PCR, quinidine vs vehicle) was “normalized or markedly inhibited; also recorded: suppressed HIF-2α activation in MCT-rat lungs”. Further, in data set [2] (setting [9]), the “muscularization of distal pulmonary arteries (<75 μm)” value is “markedly attenuated; also recorded: Marked decrease in muscularization of distal pulmonary arterioles” and the “pulmonary artery wall thickening (pulmonary vascular remodeling)” value is given as “markedly attenuated; also recorded: reversed pulmonary vascular remodeling”. In addition, the “survival, result in words” value in data set [2] (MCT rats, Log-rank test) is recorded as “promoted survival”. For the same compound, the “PH (RVSP)” value in data set [2] (MCT rats, quinidine alone 10 mg/kg oral twice a day, 14 days) is listed as “didn't inhibit PH”. In addition, in data set [2] (setting [10]), the RV contractility result is “Improved RV contractility” and the “RV wall thickness (echocardiography)” value is listed as “decreased RV wall thickness; also recorded: reduction in RV wall thickness”. Moreover, in data set [2] (setting [11]), the RV hypertrophy entry is “marked decrease; also recorded: reduced” and the “right ventricular systolic pressure (RVSP)” value was “marked decrease; also recorded: reduced RVSP”. The compound also yielded a survival rate in data set [2] (day 28 post-MCT challenge with a lethal dose, all vehicle rats had died) of 90%.

Take hydroxyethylapoquinine [HEAQ]: the “HRE luciferase activity (HIF activity)” value in data set [1] (24 h) is listed as “could inhibit HIF activity as efficiently as Quinidine”. The “PH (RVSP)” value in data set [2] (MCT rats, HEAQ 20 mg/kg oral daily for 14 days from 14 days post-MCT) was “attenuate PH; also recorded: markedly reduced RVSP”. Besides, the concentration for half-maximal inhibition (IC50) (usually the concentration that inhibits the measured activity by half) in data set [8] is over 90 µM.
